What was measured:
Assay in all cases: relative viability (nuclei count vs DMSO), 5 days (fraction); higher = more cells survive
Bemcentinib + Luminespib = compound: Nc1nc(Nc2ccc3c(c2)CC[C@@H](N2CCCC2)CC3)nn1-c1cc2c(nn1)-c1ccccc1CCC2 [Bemcentinib] + CCNC(=O)c1noc(-c2cc(C(C)C)c(O)cc2O)c1-c1ccc(CN2CCOCC2)cc1 [Luminespib] (partner 0.01 µM)
Procedure, shortened: (§1)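 Relative viability equals treated-well nuclei counts divided by vehicle-well nuclei counts. Counts came from 4× images of lung cancer cell lines grown in 1536-well plates for 5 days after pin-tool dosing on the day after seeding. Dosing used one drug alone or a fixed anchor-drug dose plus five library-drug doses (not always all listed) in √10 steps, and values are medians of duplicate plates.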

Axitinib + Foretinib = compound: CNC(=O)c1ccccc1Sc1ccc2c(/C=C/c3ccccn3)n[nH]c2c1 [Axitinib] + COc1cc2c(Oc3ccc(NC(=O)C4(C(=O)Nc5ccc(F)cc5)CC4)cc3F)ccnc2cc1OCCCN1CCOCC1 [Foretinib] (partner 0.25 µM)
Procedure, shortened: as §1

[1] = compound: CC1=CC=C(C=C1)C(=O)CN2C3=C(CCCC3)SC2=N [Pifithrin_alpha] + COc1cc2c(Oc3ccc(NC(=O)C4(C(=O)Nc5ccc(F)cc5)CC4)cc3F)ccnc2cc1OCCCN1CCOCC1 [Foretinib] (partner 0.25 µM)
Procedure, shortened: as §1

Bemcentinib + Bortezomib = compound: Nc1nc(Nc2ccc3c(c2)CC[C@@H](N2CCCC2)CC3)nn1-c1cc2c(nn1)-c1ccccc1CCC2 [Bemcentinib] + CC(C)C[C@H](NC(=O)[C@H](Cc1ccccc1)NC(=O)c1cnccn1)B(O)O [Bortezomib] (partner 0.002 µM)
Procedure, shortened: as §1

Cell Line	relative viability (Bemcentinib + Luminespib; first compound 0.04 µM)	relative viability (Bemcentinib + Luminespib; first compound 0.1265 µM)	relative viability (Bemcentinib + Luminespib; first compound 0.4 µM)	relative viability (Bemcentinib + Luminespib; first compound 4 µM)	relative viability (Axitinib + Foretinib; first compound 0.005 µM)	relative viability (Axitinib + Foretinib; first compound 0.01581 µM)	relative viability (Axitinib + Foretinib; first compound 0.05 µM)	relative viability (Axitinib + Foretinib; first compound 0.1581 µM)	relative viability (Axitinib + Foretinib; first compound 0.5 µM)	relative viability ([1]; first compound 3.162 µM)	relative viability ([1]; first compound 10 µM)	relative viability ([1]; first compound 31.62 µM)	relative viability ([1]; first compound 100 µM)	relative viability (Bemcentinib + Luminespib; first compound 1.265 µM)	relative viability ([1]; first compound 1 µM)	relative viability (Bemcentinib + Bortezomib; first compound 0.04 µM)	relative viability (Bemcentinib + Bortezomib; first compound 0.1265 µM)	relative viability (Bemcentinib + Bortezomib; first compound 0.4 µM)	relative viability (Bemcentinib + Bortezomib; first compound 1.265 µM)	relative viability (Bemcentinib + Bortezomib; first compound 4 µM)
NCI-H1793	0.211	0.179	0.169	0.18	0.851	0.597	0.764	0.65	0.687	0.539	0.61	0.642	0.483	–	–	–	–	–	–	–
NCI-H522	0.95	1.15	1.16	1.06	–	–	–	–	–	–	–	–	–	1.21	–	–	–	–	–	–
NCI-H1395	0.611	0.733	0.808	1	0.97	1.03	0.982	0.939	0.918	0.98	0.975	0.748	0.712	0.686	0.899	–	–	–	–	–
NCI-H1703	–	–	–	–	0.362	0.292	0.376	0.371	0.325	0.336	0.374	0.34	0.266	–	0.285	0.25	0.237	0.292	0.284	0.29
HCC-366	–	–	–	–	0.949	0.958	0.865	0.966	0.977	0.906	0.915	–	0.527	–	0.896	0.985	1.16	1.35	1.1	1.06
NCI-H358	0.319	0.335	0.303	0.369	0.701	0.738	0.859	0.695	0.925	0.777	0.645	0.467	0.541	0.247	0.773	–	–	–	–	–
Calu-6	–	–	–	–	0.955	0.902	0.855	0.904	0.947	0.883	0.76	0.636	0.706	–	0.952	1.05	1.07	1.07	1.08	1.12
EBC-1	–	–	–	–	0.104	0.116	0.0984	0.0972	0.122	0.0947	0.0856	0.0979	0.0988	–	0.0836	0.585	0.547	0.525	0.458	0.585
IA-LM	–	–	–	–	1.27	1.14	1.13	1.09	1.35	0.975	0.469	0.445	0.604	–	1.07	0.663	0.696	0.799	0.923	0.808
NCI-H2342	0.689	0.762	0.679	0.794	1.29	1.04	0.982	1.02	1.07	1.01	0.953	1.09	1.01	0.83	1.14	–	–	–	–	–
HCC-78	–	–	–	–	0.582	0.536	0.512	0.6	0.548	0.551	0.486	0.467	0.523	–	0.592	0.485	0.516	0.556	0.541	0.491
SK-MES-1	0.456	0.742	0.786	1.07	0.976	0.977	1.02	0.925	0.951	0.817	0.857	0.588	0.604	0.761	0.763	–	–	–	–	–
SW 900	0.169	0.203	0.174	0.17	1.02	0.673	0.941	1.01	1.12	0.724	0.836	0.837	0.424	0.156	0.878	–	–	–	–	–
LK-2	0.218	0.167	0.151	0.182	1.31	1.03	1.06	1.1	1.42	1.64	1.48	–	1.62	0.172	1.18	–	–	–	–	–
NCI-H2170	0.568	0.923	0.649	0.869	1.02	0.716	1.03	0.939	1.01	1.02	0.988	0.931	0.952	0.809	0.985	–	–	–	–	–
NCI-H1623	0.498	0.547	0.588	0.467	0.948	0.846	0.758	0.838	0.885	0.811	0.759	0.628	0.669	0.481	0.825	–	–	–	–	–
A549	–	–	–	–	0.977	0.973	0.972	0.976	1.23	0.958	1.1	0.874	0.959	–	1.1	–	–	–	–	–
NCI-H1944	0.735	0.836	0.791	0.758	0.892	0.881	0.978	0.882	1	0.713	0.732	0.47	0.677	0.705	0.816	–	–	–	–	–
NCI-H1792	0.578	0.482	0.64	0.486	–	–	–	–	–	–	–	–	–	0.489	–	1.02	1.17	1.19	1.04	1.03

Source: the supplement of paper PMC10307832
